Converted amounts (≈) assume the structure as drawn. Like-named read-outs stand apart in the source and are kept apart here.
How the values were obtained:
[1] = DPPH free radical scavenging activity; details: DPPH 0.1 mM, absorbance at 517 nm; triplicate, mean ± SD
Experimental: The capacity to scavenge the stable free radical 2,2-diphenyl-1-picrylhydrazyl (DPPH) was monitored according to the Blois method. The test samples (10–100 μL) were mixed with 1 mL of DPPH (0.1 mM) solution and filled up with methanol to a final volume of 4 mL. Absorbance of the resulting solution was measured at 517 nm in a visible spectrophotometer (Model 166, Systronics, India). The free radical scavenging rate of the reaction solution was calculated as a percentage (%) of DPPH decolouration using the equation (1) I(%)=(Ablank−Asample/Ablank)×100, where A blank is the absorbance of the control reaction mixture excluding the test compounds, and A sample is the absorbance of the test compounds. Radical scavenging potential was expressed as IC50 value, which represents the sample concentration at which 50% of the DPPH radicals were scavenged. Tests were carried out in triplicate and the results were expressed as mean values ± standard deviations.
DPPH radical scavenging activity evaluation is a standard assay in antioxidant activity studies and offers a rapid technique for screening the radical scavenging activity of specific compounds [24]. The free radical scavenging activity of newly synthesized compounds was tested by their ability to bleach the stable radical DPPH. The activity was monitored by following the absorption at 517 nm in a visible spectrophotometer. In the presence of any free radical scavenger, this odd electron pairs up and causes the diminishing of absorption band which is proportional to the number of electrons taken up. The activity was studied at different concentrations for each compound. […] Resulting from a color change from purple to yellow the absorbance decreased when the antioxidant molecule can quench DPPH free radical through donation of hydrogen atom or by electron donating to form a stable DPPH molecule.

[2] = superoxide radical scavenging assay (NBT, xanthine-xanthine oxidase system); format: biochemical; details: NBT reduction, pH 7.8, 560 nm, three replicates
Experimental: Superoxide radical scavenging activity was measured as described by Kovala-Demertzi et al., (2004). The assay is based on the reduction of nitroblue tetrazolium (NBT) by superoxide ions generated by the xanthine-xanthine oxidase system (X–XO). The reaction system contained 0.2 mM xanthine and 0.6 mM NBT in 0.1 M phosphate buffer, pH 7.8. The tested compounds were dissolved in methanol. The reaction was started by addition of XO (0.07 U mL^−1), an activity which allowed to yield the absorbance change between 0.03 and 0.04 per minute, at 560 nm. The extent of NBT reduction was followed spectrophotometrically, by measuring the increase of the absorbance at 560 nm. All the experiments were replicated three times. The IC50 of each compound was defined as the concentration which inhibited 50% of the NBT reduction by O2 ^•− produced in the X–XO system.
Superoxide anion radical is normally initially formed, and its effects can be magnified because it produces other kinds of free radicals and oxidizing agents. The enzymatic superoxide anion radical was generated by the xanthine/xanthine oxidase reaction system. The production of superoxide was estimated by the nitroblue tetrazolium method. […] Differently, in the m-position, methoxy and hydroxyl groups act as an electron-withdrawing properties, ([…]), which are possible for providing a destabilizing effect.

[3] = test system: Aspergillus flavus (NCIM 524); assay: agar disc diffusion, zone of inhibition; format: cell-based; details: A. flavus, discs 6 mm, test compounds 100 µg/mL in DMSO, standards 10 µg/disc, 28°C 48 h, average of three replicates; for zone of inhibition at 100 µg/mL: Aspergillus flavus, NCIM524, read-out: zone of inhibition
Experimental: (§1) The in vitro antimicrobial screening effects of the compounds (3 and 5a–j) were individually tested against a panel of bacteria and fungi including Staphylococcus aureus (NCIM 5021), Bacillus subtilis (NCIM 2999), Pseudomonas aeruginosa (NCIM 5029), Escherichia coli (NCIM 2574), Candida. albicans (NCIM 3471), and Aspergillus flavus (NCIM 524). Microbial strains were cultured overnight at 37°C in nutrient and potato dextrose agar medium. All the pure microbial strains were obtained from National Chemical Laboratory (NCL), Pune, India.
(§2) The antibacterial activity of compounds was determined by agar disc diffusion method. Briefly, a suspension of tested bacterial strains was spread on the nutrient agar medium and potato dextrose agar for fungi. The discs (6 mm in diameter) impregnated with test chemicals each dissolved in concentration (100 μg/mL in DMSO) were placed on the inoculated agar and these plates were kept at 4°C for 2 h. The plate was incubated at 37°C for 24 h in case of bacteria and 48 h at 28°C in case of fungi. streptomycin (10 μg/disc) and fluconazole (10 μg/disc) were used as the standards for antibacterial and antifungal activity, respectively. All the samples were performed in triplicate and the zone of inhibition was measured in millimeters.

[4] = test system: Escherichia coli (NCIM 2574); assay: agar disc diffusion, zone of inhibition; format: cell-based; details: E. coli, discs 6 mm, test compounds 100 µg/mL in DMSO, standards 10 µg/disc, 37°C 24 h, average of three replicates; for zone of inhibition at 100 µg/mL: Escherichia coli, NCIM2574, read-out: zone of inhibition
Experimental: as §1, §2

[5] = test system: Bacillus subtilis (NCIM 2999); assay: agar disc diffusion, zone of inhibition; format: cell-based; details: B. subtilis, discs 6 mm, test compounds 100 µg/mL in DMSO, standards 10 µg/disc, 37°C 24 h, average of three replicates; for zone of inhibition at 100 µg/mL: Bacillus subtilis, NCIM2999, read-out: zone of inhibition
Experimental: as §1, §2

[6] = test system: Staphylococcus aureus (NCIM 5021); assay: agar disc diffusion, zone of inhibition; format: cell-based; details: S. aureus, discs 6 mm, test compounds 100 µg/mL in DMSO, standards 10 µg/disc, 37°C 24 h, average of three replicates; for zone of inhibition at 100 µg/mL: Staphylococcus aureus, NCIM5021, read-out: zone of inhibition
Experimental: as §1, §2

A. niger [7] = assay: agar disc diffusion, zone of inhibition; format: cell-based; details: A. niger, discs 6 mm, test compounds 100 µg/mL in DMSO, standards 10 µg/disc, 28°C 48 h, average of three replicates; for zone of inhibition at 100 µg/mL: Aspergillus niger, read-out: zone of inhibition
Experimental: [The procedure below names another organism; the source lists this organism under the same test.] as §1, §2

[8] = test system: Pseudomonas aeruginosa (NCIM 5029); assay: agar disc diffusion, zone of inhibition; format: cell-based; details: P. aeruginosa, discs 6 mm, test compounds 100 µg/mL in DMSO, standards 10 µg/disc, 37°C 24 h, average of three replicates; for zone of inhibition at 100 µg/mL: Pseudomonas aeruginosa, NCIM5029, read-out: zone of inhibition
Experimental: as §1, §2

[9] = test system: Aspergillus flavus (NCIM 524); assay: minimum inhibitory concentration by dilution method; format: cell-based; details: A. flavus, dilution method, average of three replicates
Experimental: as §1
(§3) The minimum inhibitory concentration of the synthesized compounds was determined by dilution method. The compounds were dissolved and then diluted using DMSO; two-fold serial concentrations of the compounds were employed to determine the MIC. In this method, the test concentrations of chemically synthesized compounds were made from 5 to 125 μg/mL.

[10] = test system: Escherichia coli (NCIM 2574); assay: as above; format: cell-based; details: E. coli, dilution method, average of three replicates
Experimental: as §1, §3

[11] = test system: Bacillus subtilis (NCIM 2999); assay: as above; format: cell-based; details: B. subtilis, dilution method, average of three replicates
Experimental: as §1, §3

[12] = test system: Staphylococcus aureus (NCIM 5021); assay: as above; format: cell-based; details: S. aureus, dilution method, average of three replicates
Experimental: as §1, §3

A. niger [13] = assay: as above; format: cell-based; details: A. niger, dilution method, average of three replicates
Experimental: [The procedure below names another organism; the source lists this organism under the same test.] as §1, §3

[14] = test system: Pseudomonas aeruginosa (NCIM 5029); assay: as above; format: cell-based; details: P. aeruginosa, dilution method, average of three replicates
Experimental: as §1, §3

[15] = Aspergillus flavus, NCIM524, read-out: MIC
[16] = Escherichia coli, NCIM2574, read-out: MIC
[17] = Bacillus subtilis, NCIM2999, read-out: MIC
[18] = Staphylococcus aureus, NCIM5021, read-out: MIC
[19] = Aspergillus niger, read-out: MIC
[20] = Pseudomonas aeruginosa, NCIM5029, read-out: MIC

Compound | IC50 DPPH [1] [µg/mL] | IC50 Superoxide [2] [µg/mL] | MIC [9, 15] [µg/mL] | MIC [10, 16] [µg/mL] | MIC [11, 17] [µg/mL] | MIC [12, 18] [µg/mL] | MIC (A. niger [13]; [19]) [µg/mL] | MIC [14, 20] [µg/mL] | zone of inhibition at 100 µg/mL [3] [mm] | zone of inhibition at 100 µg/mL [4] [mm] | zone of inhibition at 100 µg/mL [5] [mm] | zone of inhibition at 100 µg/mL [6] [mm] | zone of inhibition at 100 µg/mL (A. niger [7]) [mm] | zone of inhibition at 100 µg/mL [8] [mm] | further results
O=C1O[C@H]([C@@H](O)CO)C(O)=C1O [AA, Ascorbic acid, reference compound] | 12.6 ± 0.43 (≈ 71.5 µM) | – | – | – | – | – | – | – | – | – | – | – | – | – | –
COc1ccc(O)c(C(C)(C)C)c1 [BHA, butylated hydroxyanisole, reference compound] | – | 13.4 ± 0.29 (≈ 74.3 µM) | – | – | – | – | – | – | – | – | – | – | – | – | –
CC(=O)Nc1ccc(N=Cc2cc3ccccc3o2)cc1 [Compound 3, N-(4-((benzofuran-2-ylmethylene)amino)phenyl)acetamide] | 95.3 ± 0.76 (≈ 342 µM) | 85.1 ± 0.33 (≈ 306 µM) | 75 (≈ 269 µM) | > 100 | 75 (≈ 269 µM) | 75 (≈ 269 µM) | 75 (≈ 269 µM) | > 100 | 12.5 | 11 | 7 | 8 | 12.4 | 10 | –
OC(Cn1cncn1)(Cn1cncn1)c1ccc(F)cc1F [Fluconazole, fluconazole, reference compound] | – | – | 5 (≈ 16.3 µM) | – | – | – | 5 (≈ 16.3 µM) | – | 19 | – | – | – | 16 | – | –
[H]/N=C(/N)N[C@H]1[C@H](O)[C@@H](O)[C@H](O[C@@H]2O[C@@H](C)[C@](O)(C=O)[C@H]2O[C@@H]2O[C@@H](CO)[C@H](O)[C@@H](O)[C@@H]2NC)[C@@H](N/C(N)=N\[H])[C@@H]1O [Streptomycin, streptomycin, reference compound] | – | – | – | 5 (≈ 8.6 µM) | 5 (≈ 8.6 µM) | 5 (≈ 8.6 µM) | – | 5 (≈ 8.6 µM) | – | 16.5 | 13.4 | 14.1 | – | 14 | –

More lines, main results first:

IC50 DPPH [1] [µg/mL] | IC50 Superoxide [2] [µg/mL] | MIC [9, 15] [µg/mL] | MIC [10, 16] [µg/mL] | MIC [11, 17] [µg/mL] | MIC [12, 18] [µg/mL] | MIC (A. niger [13]; [19]) [µg/mL] | MIC [14, 20] [µg/mL] | Compound | zone of inhibition at 100 µg/mL [3] [mm] | zone of inhibition at 100 µg/mL [4] [mm] | zone of inhibition at 100 µg/mL [5] [mm] | zone of inhibition at 100 µg/mL [6] [mm] | zone of inhibition at 100 µg/mL (A. niger [7]) [mm] | zone of inhibition at 100 µg/mL [8] [mm] | further results
85.3 ± 0.14 (≈ 215 µM) | 92.0 ± 0.35 (≈ 232 µM) | 25 (≈ 63.1 µM) | 50 (≈ 126 µM) | 30 (≈ 75.7 µM) | 50 (≈ 126 µM) | 25 (≈ 63.1 µM) | 30 (≈ 75.7 µM) | CC(=O)N(C(=O)Cc1ccccc1)c1ccc(N=Cc2cc3ccccc3o2)cc1 [Compound 5b, N-acetyl-N-(4-((benzofuran-2-ylmethylene)amino)phenyl)-2-phenylacetamide] | 15 | 10 | 10 | 10 | 12 | 11 | melting point: 193 °C
48.9 ± 0.11 (≈ 109 µM) | 55.3 ± 0.04 (≈ 124 µM) | – | – | – | – | – | – | CC(=O)N(C(=O)OCc1ccccc1Cl)c1ccc(N=Cc2cc3ccccc3o2)cc1 [Compound 5d, 2-chlorobenzylacetyl(4-((benzofuran-2-ylmethylene)amino)phenyl)carbamate] | – | – | – | – | – | – | zone of inhibition [3]: 11 mm; zone of inhibition [4]: 10 mm; zone of inhibition [5]: 14 mm; zone of inhibition [6]: 12 mm; zone of inhibition (A. niger [7]): 13.7 mm; zone of inhibition [8]: 13 mm; MIC [9]: 40 µg/mL (≈ 89.5 µM); MIC [10]: 50 µg/mL (≈ 112 µM); MIC [11]: 50 µg/mL (≈ 112 µM); MIC [12]: 30 µg/mL (≈ 67.1 µM); MIC (A. niger [13]): 25 µg/mL (≈ 55.9 µM); MIC [14]: 50 µg/mL (≈ 112 µM)
87.4 ± 0.31 (≈ 204 µM) | 79.2 ± 0.24 (≈ 185 µM) | 20 (≈ 46.8 µM) | 25 (≈ 58.5 µM) | 15 (≈ 35.1 µM) | 15 (≈ 35.1 µM) | 20 (≈ 46.8 µM) | 25 (≈ 58.5 µM) | CC(=O)N(C(=O)c1ccc([N+](=O)[O-])cc1)c1ccc(N=Cc2cc3ccccc3o2)cc1 [Compound 5e, N-acetyl-N-(4-((benzofuran-2-ylmethylene)amino)phenyl)-4-nitrobenzamide] | 13.6 | 9 | 11 | 14 | 14.1 | 11 | melting point: 182 °C
